From US8563746B2, “Cyclic benzimidazole derivatives useful as anti-diabetic agents” (Merck Sharp & Dohme Corp, priority 2008, dated 2013)

Columns and labels:
ob/ob and db/db mice = conditions: following 8 weeks of administration; cited from earlier work
[1] = molecular target: recombinant human AMPK complex 1 (containing α1β1γ1) (Homo sapiens, UniProt Q13131+Q9Y478); assay: In vitro AMPK activation assay ([…]); format: biochemical; conditions: recombinant human AMPK complex 1 (α1β1γ1); for Emax: basal activity subtracted, expressed as % maximum AMP activation; for EC50: read-out: EC50
Experimental: The recombinant human AMPK complex 1 (containing α1β1γ1) was obtained from baculovirus expression system. Recombinant viruses were generated by cotransfection of AMPK/pBacPak9 clones with Baculogold baculovirus DNA (Pharmingen) in spodoptera frugiperda 21 cells according to the manufacturer's instructions. Each round of virus amplification was performed for 5 days in Grace's medium containing 10% serum. Virus that had been subjected to three rounds of amplification was used for all protein production procedures. To express the AMPK complex, sf21 cells were adapted to serum free medium (SF900 II, Invitrogen) by sequential dilution from serum containing stocks into SF900II medium and maintained in shaker flasks at 90 rpm at 27° C. The recombinant AMPK enzyme complex was produced by triple infection, one recombinant virus for each of the subunits, in sf21 cells under serum free conditions. Cells were infected in log phase, 1×10^6 cells/ml, at a multiplicity of infection of ˜5. Cells were harvested by centrifugation at 10,000×g for 15 minutes after 72 hours of infection with viruses. The insect cell pellet from 2 liters of culture was resuspended in 50 ml lysis buffer (20 mM Tris-HCl, 50 mM NaCl, 50 mM NaF, 30 mM Na PPi, 0.25 M sucrose, 10 mM ZnCl2, 2 mM DTT, 0.4 mg/ml digitonin) and subjected to two cycles of freeze-thaw lysis in a dry-ice ethanol bath. Insoluble material was removed by centrifugation at 10,000×g and the supernatant was fractionated with use of polyethylene glycol (PEG). The protein fraction precipitating between 2.5 and 6% PEG was used for further purification using a Blue-Sepharose step (Zhou et al, J. Clin. Invest. 108, 1167-1174, 2001).
The total in vitro AMPK activation assay volume is 50 μl in a 96-well plate. The reaction mixture contained 100 μM ATP (0.5 μCi ^33P-ATP per reaction), and 50 μM SAMS ([…]) in a buffer (20 mM HEPES, pH 7.0, 5 mM MgCl2, 0.01% Brij35). The reaction was initiated with addition of the enzyme. After 30-minute incubation at 30° C., the reaction was stopped by addition of 80 μl 1% H3PO4. Aliquots (100 μl) were transferred to 96-well MultiScreen plates (MAPHNOB50; Millipore Corp., Bedford, Mass., USA). The plate was washed three times with 1% H3PO4 followed by detection in a Top-count. The counts per minute from the basal activity (the reaction without activator) was subtracted from each well and the data were expressed as % maximum AMP activation followed by EC50 calculation.

Chain of recombinant human AMPK complex 1 (containing α1β1γ1) (Q13131 whole entry): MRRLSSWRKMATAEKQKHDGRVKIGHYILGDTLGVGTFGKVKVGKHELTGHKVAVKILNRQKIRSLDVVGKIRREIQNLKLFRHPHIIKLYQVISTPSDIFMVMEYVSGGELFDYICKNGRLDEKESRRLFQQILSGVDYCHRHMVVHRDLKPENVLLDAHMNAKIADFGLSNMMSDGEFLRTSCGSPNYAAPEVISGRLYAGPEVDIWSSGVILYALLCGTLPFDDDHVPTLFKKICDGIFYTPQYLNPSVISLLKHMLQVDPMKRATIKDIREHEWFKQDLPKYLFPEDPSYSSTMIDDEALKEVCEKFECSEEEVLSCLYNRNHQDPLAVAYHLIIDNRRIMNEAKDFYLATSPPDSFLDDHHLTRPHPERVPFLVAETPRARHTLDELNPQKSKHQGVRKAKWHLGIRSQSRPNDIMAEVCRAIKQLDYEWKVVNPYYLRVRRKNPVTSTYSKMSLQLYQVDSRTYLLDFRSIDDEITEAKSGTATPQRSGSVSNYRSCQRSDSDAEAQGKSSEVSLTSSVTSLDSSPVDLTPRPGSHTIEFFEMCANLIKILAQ
Chain of recombinant human AMPK complex 1 (containing α1β1γ1) (Q9Y478 whole entry): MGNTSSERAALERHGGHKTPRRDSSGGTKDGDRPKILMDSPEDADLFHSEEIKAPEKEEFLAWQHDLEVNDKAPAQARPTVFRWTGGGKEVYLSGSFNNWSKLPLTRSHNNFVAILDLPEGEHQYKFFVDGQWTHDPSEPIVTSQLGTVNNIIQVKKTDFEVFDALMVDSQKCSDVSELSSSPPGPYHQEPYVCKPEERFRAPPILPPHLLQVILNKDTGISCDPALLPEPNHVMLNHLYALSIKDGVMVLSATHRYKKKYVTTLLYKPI
Chain of recombinant human AMPK complex 1 (containing α1β1γ1) (P54619 whole entry partner): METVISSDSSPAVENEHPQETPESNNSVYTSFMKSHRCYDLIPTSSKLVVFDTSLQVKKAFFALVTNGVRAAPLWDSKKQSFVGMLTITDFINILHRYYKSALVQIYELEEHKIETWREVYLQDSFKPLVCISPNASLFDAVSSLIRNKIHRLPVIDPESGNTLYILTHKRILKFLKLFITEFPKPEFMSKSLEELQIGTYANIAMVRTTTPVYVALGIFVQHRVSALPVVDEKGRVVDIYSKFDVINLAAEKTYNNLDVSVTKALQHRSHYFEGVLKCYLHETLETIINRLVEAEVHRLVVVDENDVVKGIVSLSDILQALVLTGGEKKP

Row | Structure (SMILES) | Emax [1] | also measured
1 | NC(=O)c1ncn([C@@H]2O[C@H](CO)[C@@H](O)[C@H]2O)c1N [AICAR] |  | blood glucose reduction (ob/ob and db/db mice): 35%
2 | O=C(O)CSc1nc2cc(C#Cc3cccs3)c(Cl)cc2[nH]1 [Example 38, (6-chloro-5-thiophen-2-yl-ethynyl-1H-benzo-imidazol-2-yl-sulfanyl)-acetic acid] | > 40% | 
3 | COc1ccc(C#Cc2cc3nc(SCC(=O)O)[nH]c3cc2Cl)cc1 [Example 39, [6-chloro-5-(4-methoxy-phenyl-ethynyl)-1H-benzimidazol-2-ylsulfanyl]-acetic acid] | > 40% | 
4 | O=C(O)CSc1nc2cc(-c3ccc(OCc4ccccc4)c(F)c3)c(Cl)cc2[nH]1 [Example 40, [5-(4-Benzyloxy-3-fluoro-phenyl)-6-chloro-1H-benzimidazol-2-ylsulfanyl]-acetic acid] | > 40% | 
5 | O=C(O)CSc1nc2cc(-c3ccc(Cl)cc3)c(Cl)cc2[nH]1 [Example 41, [6-chloro-5-(4-chloro-phenyl)-1H-benzimidazol-2-ylsulfanyl]-acetic acid] | > 40% | 
6 | COc1ccc(-c2cc3nc(SCC(=O)O)[nH]c3cc2Cl)cc1 [Example 42, [6-chloro-5-(4-methoxy-phenyl)-1H-benzimidazol-2-ylsulfanyl]-acetic acid] | > 40% | 
7 | CC(C)Cc1ccc(-c2cc3nc(SCC(=O)O)[nH]c3cc2Cl)cc1 [Example 43, [6-chloro-5-(4-isobutyl-phenyl)-1H-benzimidazol-2-ylsulfanyl]-acetic acid] | > 40% | 
8 | O=C(O)CSc1nc2cc(-c3ccc(OCc4ccccc4)cc3)c(Cl)cc2[nH]1 [Example 44, [5-(4-benzyl-oxy-phenyl)-6-chloro-1H-benzimidazol-2-ylsulfanyl]-acetic acid] | > 40% | 
9 | O=C(O)COc1nc2cc(-c3ccc(-c4ccn[nH]4)cc3)c(Cl)cc2[nH]1 [Example 45, {6-Chloro-5-[4-(2H-pyrazol-3-yl)-phenyl]-1H-benzoimidazol-2-yloxy}-acetic acid] |  | EC50 [1]: 160 nM
10 | O=C(O)COc1nc2cc(-c3ccc(-c4ccccc4)cc3)c(Cl)cc2[nH]1 [Example 46, [(5-biphenyl-4-yl-6-chloro-1H-benzimidazol-2-yl)oxy]ylacetic acid] |  | EC50 [1]: 128 nM
11 | O=C(O)COc1nc2cc(C#Cc3ccc(CO)cc3)c(Cl)cc2[nH]1 [Example 47] |  | EC50 [1]: 97 nM
12 | O=C(O)COc1nc2cc(C#Cc3ccccc3)c(Cl)cc2[nH]1 [Example 48, (6-Chloro-5-phenylethynyl-1H-benzoimidazol-2-yloxy)-acetic acid] |  | EC50 [1]: 130 nM
13 | CC(C)(COc1nc2cc(C#Cc3ccccc3)c(Cl)cc2[nH]1)C(=O)O [Example 49, 3-(6-Chloro-5-phenylethynyl-1H-benzoimidazol-2-yloxy)-2,2-dimethyl-propionic acid] | > 40% | 
14 | O=C(O)CCc1nc2cc(-c3ccccc3)c(Cl)cc2[nH]1 [Example 50, 3-(6-Chloro-5-phenyl-1H-benzimidazol-2-yl)-propionic acid] | > 40% | 
15 | O=C(O)CCc1nc2cc(-c3ccc(-c4ccccc4)cc3)c(Cl)cc2[nH]1 [Example 51, 3-(5-Biphenyl-4-yl-6-chloro-1H-benzimidazol-2-yl)-propionic acid] | > 40% | 
16 | O=C(O)CSc1nc2cc(C#Cc3cccnc3)c(Cl)cc2[nH]1 [Example 56] | > 40% | 
17 | O=C(O)CSc1nc2cc(C#Cc3ccccn3)c(Cl)cc2[nH]1 [Example 57] | > 40% | 
18 | O=C(O)CSc1nc2cc(-c3ccc(-c4ccccc4)s3)c(Cl)cc2[nH]1 [Example 58] | > 40% | 
19 | Cn1ccc2cc(-c3cc4nc(SCC(=O)O)[nH]c4cc3Cl)ccc21 [Example 59] |  | EC50 [1]: 100 nM
20 | O=C(O)CSc1nc2cc(-c3ccc(N4CCCCC4)cc3)c(Cl)cc2[nH]1 [Example 60] | > 40% | 
21 | O=C(O)CSc1nc2cc(-c3ccc(N4CCOCC4)cc3)c(Cl)cc2[nH]1 [Example 61] | > 40% | 
22 | O=C(O)CSc1nc2cc(-c3ccc(N4CCOCC4)nc3)c(Cl)cc2[nH]1 [Example 62] | > 40% | 

Row | Structure (SMILES) | Emax [1] | also measured
23 | O=C(O)CSc1nc2cc(-c3cc4ccccc4s3)c(Cl)cc2[nH]1 [Example 63] | > 40% | 
24 | O=C(O)CSc1nc2cc(C#Cc3ccc(C(F)(F)F)cc3)c(Cl)cc2[nH]1 [Example 65] | > 40% | 
25 | O=C(O)CSc1nc2cc(-c3ccc4[nH]ccc4c3)c(Cl)cc2[nH]1 [Example 66] |  | EC50 [1]: 282 nM
26 | O=C(O)CSc1nc2cc(C#Cc3ccc(Cl)cc3)c(Cl)cc2[nH]1 [Example 67] | > 40% | 
27 | O=C(O)CSc1nc2cc(C#Cc3ccc(Br)cc3)c(Cl)cc2[nH]1 [Example 68] | > 40% | 
28 | O=C(O)CSc1nc2cc(C#Cc3cc(F)cc(F)c3)c(Cl)cc2[nH]1 [Example 69] | > 40% | 
29 | O=C(O)CSc1nc2cc(C#Cc3ccccc3[N+](=O)[O-])c(Cl)cc2[nH]1 [Example 70] | > 40% | 
30 | O=C(O)CSc1nc2cc(-c3cccc(N4CCOCC4)n3)c(Cl)cc2[nH]1 [Example 71] | > 40% | 
31 | O=C(O)CSc1nc2cc(-c3csc(-c4ccccc4)n3)c(Cl)cc2[nH]1 [Example 72] | > 40% | 
32 | O=C(O)CSc1nc2cc(-c3ccc(-c4cnccn4)cc3)c(Cl)cc2[nH]1 [Example 73] | > 40% | 
33 | CCc1ccc(C(=O)Cc2cc3nc(SCC(=O)O)[nH]c3cc2Cl)cc1 [Example 74] | > 40% | 
34 | O=C(O)CSc1nc2cc(C#Cc3ccc(C(=O)O)cc3)c(Cl)cc2[nH]1 [Example 75] | > 40% | 
35 | CC(=O)Nc1ccc(C#Cc2cc3nc(SCC(=O)O)[nH]c3cc2Cl)cc1 [Example 76] | > 40% | 
36 | CS(=O)(=O)Nc1ccc(C#Cc2cc3nc(SCC(=O)O)[nH]c3cc2Cl)cc1 [Example 77] | > 40% | 
37 | CCNC(=O)Nc1ccc(C#Cc2cc3nc(SCC(=O)O)[nH]c3cc2Cl)cc1 [Example 78] | > 40% | 
38 | O=C(O)CSc1nc2cc(-c3ccc(Br)cc3)c(Cl)cc2[nH]1 [Example 79] | > 40% | 
39 | O=C(O)CSc1nc2cc(-c3ccc(C(F)(F)F)cc3)c(Cl)cc2[nH]1 [Example 81] | > 40% | 
40 | CN(C)C(=O)c1ccc(C#Cc2cc3nc(SCC(=O)O)[nH]c3cc2Cl)cc1 [Example 82] | > 40% | 
41 | CNC(=O)c1ccc(C#Cc2cc3nc(SCC(=O)O)[nH]c3cc2Cl)cc1 [Example 83] | > 40% | 
42 | CSc1ccc(-c2cc3nc(SCC(=O)O)[nH]c3cc2Cl)cc1 [Example 84] | > 40% | 
43 | Cc1cc(-c2cc3nc(SCC(=O)O)[nH]c3cc2Cl)ccc1Cl [Example 85] | > 40% | 
44 | C[S+]([O-])c1ccc(-c2cc3nc(SCC(=O)O)[nH]c3cc2Cl)cc1 (centres unmarked) [Example 86] | > 40% | 
